Results reported in ChEMBL document CHEMBL1121776, “Folate antagonists. 18. Synthesis and antimalarial effects of N6-(arylmethyl)-N6-methyl-2,4,6-pteridinetriamines and related N6,N6-disubstituted 2,4,6-pteridinetriamines” (1981).
≈ marks a conversion by molar mass, not a printed value.

How the values were obtained:
Type in all cases: functional
[1] = test system: Mus musculus; assay: Parenteral antimalarial effect against Plasmodium berghei in mice (Mus musculus) at a dose of 640 subcutaneously mg/kg
[2] = test system: Mus musculus; assay: Parenteral antimalarial effect against Plasmodium berghei in mice (Mus musculus) at a dose of 160 subcutaneously mg/kg
[3] = test system: Mus musculus; assay: Parenteral antimalarial effect against Plasmodium berghei in mice (Mus musculus) at a dose of 40 mg/kg subcutaneously; conditions: route subcutaneous
[4] = test system: Mus musculus; assay: Parenteral antimalarial effect against Plasmodium berghei in mice (Mus musculus) at a dose of 80 mg/kg subcutaneously; conditions: route subcutaneous
[5] = test system: Mus musculus; assay: Parenteral antimalarial effect against Plasmodium berghei in mice (Mus musculus) at a dose of 20sc mg/kg
[6] = test system: Mus musculus; assay: Parenteral antimalarial effect against Plasmodium berghei in mice (Mus musculus) at a dose of 320 subcutaneous mg/kg
[7] = test system: Mus musculus; assay: Parenteral antimalarial effect against Plasmodium berghei in mice (Mus musculus) at a dose of 10sc mg/kg
[8] = test system: Mus musculus; assay: Parenteral antimalarial effect against Plasmodium berghei in mice (Mus musculus) at a dose of 320 mg/kg subcutaneously; Number of mice (Mus musculus) surviving at 60 days post infection and cured 3/5; conditions: route subcutaneous
[9] = test system: Mus musculus; assay: Parenteral antimalarial effect against Plasmodium berghei in mice (Mus musculus) at a dose of 160 mg/kg subcutaneously; Number of mice (Mus musculus) surviving at 60 days post infection and cured 3/5; conditions: route subcutaneous
[10] = test system: Mus musculus; assay: Parenteral antimalarial effect against Plasmodium berghei in mice (Mus musculus) at a dose of 80 mg/kg subcutaneously; Number of mice (Mus musculus) surviving at 60 days post infection and cured 2/5; conditions: route subcutaneous
[11] = test system: Escherichia coli; assay: In vitro antibacterial effect against Escherichia coli Vogel by using gradient plate test
[12] = test system: Enterococcus faecalis; assay: In vitro antibacterial effect against Streptococcus faecalis MGH-2
[13] = test system: Staphylococcus aureus; assay: In vitro antibacterial effect against Staphylococcus aureus UC-76 by using gradient plate test
[14] = test system: Mus musculus; assay: Parenteral antimalarial effect against Plasmodium berghei in mice (Mus musculus) at a dose of 160 mg/kg subcutaneously; Number of mice (Mus musculus) surviving at 60 days post infection and cured 10/10; conditions: route subcutaneous
[15] = test system: Mus musculus; assay: Parenteral antimalarial effect against Plasmodium berghei in mice (Mus musculus) at a dose of 320 subcutaneous mg/kg; Number of mice (Mus musculus) surviving at 60 days post infection and cured 5/5
[16] = test system: Mycobacterium tuberculosis; assay: In vitro antibacterial effect against Mycobacterium tuberculosis H37Rv by using gradient plate test
[17] = test system: Mus musculus; assay: Parenteral antimalarial effect against Plasmodium berghei in mice (Mus musculus) at a dose of 640 mg/kg subcutaneously; Number of mice (Mus musculus) surviving at 60 days post infection and cured 10/10; conditions: route subcutaneous
[18] = test system: Shigella sonnei; assay: In vitro antibacterial effect against Shigella sonnei C-10 by using gradient plate test
[19] = test system: Staphylococcus aureus; assay: In vitro antibacterial effect against Staphylococcus aureus S18713 by using gradient plate test
[20] = test system: Pseudomonas aeruginosa; assay: In vitro antibacterial effect against Pseudomonas aeruginosa 28 by using gradient plate test
[21] = test system: Enterococcus faecalis; assay: In vitro antibacterial effect against S. f MGH-2
[22] = test system: Pseudomonas aeruginosa; assay: In vitro antibacterial effect against P.a 28 by using gradient plate test
[23] = test system: Staphylococcus aureus; assay: In vitro antibacterial effect against S. a. UC-76 by using gradient plate test
[24] = test system: Escherichia coli; assay: In vitro antibacterial effect against E. c. Vogel by using gradient plate test
[25] = test system: Staphylococcus aureus; assay: In vitro antibacterial effect against S. a. S18713 by using gradient plate test
[26] = test system: Shigella sonnei; assay: In vitro antibacterial effect against S. s C-10 by using gradient plate test
[27] = test system: Mycobacterium tuberculosis; assay: In vitro antibacterial effect against M. t. H37Rv by using gradient plate test
[28] = test system: Mus musculus; assay: Parenteral antimalarial effect against Plasmodium berghei in mice (Mus musculus) at a dose of 160 mg/kg subcutaneously; Number of mice (Mus musculus) surviving at 60 days post infection and cured 6/10; conditions: route subcutaneous
[29] = test system: Mus musculus; assay: Parenteral antimalarial effect against Plasmodium berghei in mice (Mus musculus) at a dose of 320 mg/kg subcutaneously; Number of mice (Mus musculus) surviving at 60 days post infection and cured 3; No of toxic deaths 2; conditions: route subcutaneous
[30] = test system: Mus musculus; assay: Parenteral antimalarial effect against Plasmodium berghei in mice (Mus musculus) at a dose of 160 mg/kg subcutaneously; Number of mice (Mus musculus) surviving at 60 days post infection and cured 5/5; conditions: route subcutaneous
[31] = test system: Mus musculus; assay: Parenteral antimalarial effect against Plasmodium berghei in mice (Mus musculus) at a dose of 20 mg/kg subcutaneously; Number of mice (Mus musculus) surviving at 60 days post infection and cured 4/10; conditions: route subcutaneous
[32] = test system: Mus musculus; assay: Parenteral antimalarial effect against Plasmodium berghei in mice (Mus musculus) at a dose of 40sc mg/kg; Number of mice (Mus musculus) surviving at 60 days post infection and cured 3/5
[33] = test system: Mus musculus; assay: Parenteral antimalarial effect against Plasmodium berghei in mice (Mus musculus) at a dose of 80 subcutaneously mg/kg; Number of mice (Mus musculus) surviving at 60 days post infection and cured 7/10
[34] = test system: Mus musculus; assay: Parenteral antimalarial effect against Plasmodium berghei in mice (Mus musculus) at a dose of 640 subcutaneously mg/kg; Number of mice (Mus musculus) surviving at 60 days post infection and cured 4/10
[35] = test system: Mus musculus; assay: Parenteral antimalarial effect against Plasmodium berghei in mice (Mus musculus) at a dose of 320 subcutaneously mg/kg; Number of mice (Mus musculus) surviving at 60 days post infection and cured 1/5

For `Nc1nc(N)c2nc(N3CCc4ccccc4C3)cnc2n1`, the MST [1] was 0.5 days, the MST [2] was 0.3 days and the MST [3] was 0.1 days.

In the case of `Nc1nc(N)c2nc(N3CCCCC3)cnc2n1`, the MST [4] is reported as 0.3 days, the MST [5] is reported as 0.3 days and the MST [6] is reported as 0.9 days.

`Nc1nc(N)c2nc(N3CCCC3c3ccc(Cl)cc3)cnc2n1` (centres undefined) showed an MST [7] of 7.9 days, an MST [8] of 3 days and an MST [9] of 3 days. The MST [10] was 2 days, the MST [3] was 12.1 days and the MST [5] was 10.1 days.

`CN(Cc1c2ccccc2cc2ccccc12)c1cnc2nc(N)nc(N)c2n1` showed an MST [4] of 0.1 days, an MST [5] of 0.1 days and an MST [6] of 1.3 days.

For `CN(Cc1cccc2ccccc12)c1cnc2nc(N)nc(N)c2n1`, the MIC [11] was > 25 µg/mL, the MIC [12] was < 0.25 µg/mL and the MIC [13] was < 0.25 µg/mL. The MST [7] was 4 days, the MST [14] was 10 days and the MST [15] was 5 days. The MIC [16] was > 25 µg/mL, the MST [17] was 10 days and the MIC [18] was > 25 µg/mL. For the same molecule, the MIC [19] was < 0.25 µg/mL, the MST [5] was 5 days and the MIC [20] was > 25 µg/mL.

`COc1cc(Cc2cnc(N)nc2N)cc(OC)c1OC` [TRIMETHOPRIM] was tested, and the MIC [21] was < 0.25 µg/mL, the MIC [22] was > 25 µg/mL and the MIC [23] was < 0.25 µg/mL. The MIC [24] was > 25 µg/mL, the MIC [25] was < 0.25 µg/mL and the MIC [26] was > 25 µg/mL. The MIC [27] was > 25 µg/mL.

For `CN(Cc1ccccc1Cl)c1cnc2nc(N)nc(N)c2n1`, the MIC [12] was < 0.25 µg/mL, the MIC [13] was < 0.25 µg/mL and the MST [28] was 6 days. For the same molecule, the MIC [24] was > 25 µg/mL, the MIC [16] was 5 µg/mL (≈ 15.8 µM) and the MST [29] was 3 days. For the same molecule, the MIC [18] was > 25 µg/mL, the MIC [19] was < 0.25 µg/mL and the MST [5] was 9.5 days. For the same molecule, the MIC [20] was > 25 µg/mL.

In the case of `CN(Cc1ccccc1)c1cnc2nc(N)nc(N)c2n1`, the MIC [12] is reported as < 0.25 µg/mL, the MIC [13] is reported as < 0.25 µg/mL and the MST [1] is reported as 0.3 days. It also gave an MST [2] of 0.1 days, an MIC [24] of 10 µg/mL (≈ 35.5 µM) and an MIC [16] of 10 µg/mL (≈ 35.5 µM). For the same molecule, the MIC [18] was > 25 µg/mL, the MST [3] was 0.1 days and the MIC [19] was < 0.25 µg/mL. The MIC [20] was > 25 µg/mL.

`CN(Cc1ccc(Cl)cc1)c1cnc2nc(N)nc(N)c2n1` gave an MST [30] of 5 days, an MST [7] of 4.3 days and an MST [31] of 4 days. For the same molecule, the MST [32] was 3 days and the MST [33] was 7 days.

Molecule `COc1ccc2ccccc2c1CN(C)c1cnc2nc(N)nc(N)c2n1` has an MST [4] of 0.2 days, an MST [5] of 0.2 days and an MST [6] of 0.2 days.

Molecule `CN(Cc1cccc(Br)c1)c1cnc2nc(N)nc(N)c2n1` has an MST [34] of 4 days, an MST [2] of 12.8 days and an MST [4] of 10.7 days. For the same molecule, the MST [35] was 1 days, the MST [3] was 10.2 days and the MST [5] was 6.9 days.

In the case of `CN(Cc1cccc(C(F)(F)F)c1)c1cnc2nc(N)nc(N)c2n1`, the MIC [11] is reported as > 25 µg/mL, the MST [30] is reported as 5 days and the MIC [12] is reported as < 0.25 µg/mL. For the same molecule, the MIC [13] was < 0.25 µg/mL, the MST [7] was 8.8 days and the MIC [16] was 10 µg/mL (≈ 28.6 µM). For the same molecule, the MIC [18] was > 25 µg/mL, the MST [3] was 15.4 days and the MIC [19] was < 0.25 µg/mL. The MST [5] was 12.2 days and the MIC [20] was > 25 µg/mL.
